Reference: paper PMC10049354, “Anti-Inflammatory Effects and Photo- and Neuro-Protective Properties of BIO203, a New Amide Conjugate of Norbixin, in Development for the Treatment of Age-Related Macular Degeneration (AMD)” (International Journal of Molecular Sciences, 2023)

Legend:
[1] = tested on: primary porcine RPE cells; experiment: RPE phototoxicity: photoprotection of RPE cells exposed to A2E and blue light; format: cell-based, pig; details: all concentrations from 10 to 20 μM; A2E 30 μM + blue light
Protocol: RPE cells were obtained from pig eyes, as previously described. RPE cells were seeded on a 96-well plate at a density of 1.5 × 10^5 cells/cm^2 in DMEM 2% FCS. BIO201, BIO203, or its pure enantiomers were added in increasing concentrations to the culture medium 48 h before illumination. A2E was added to the medium at a final concentration of 30 μM, and 19 h later, blue-light illumination was performed for 50 min using a 96 blue-led device (Durand, St Clair de la Tour, France) emitting at 470 nm (1440 mcd, 8.6 mA). Just before illumination, the culture medium was replaced by a modified DMEM without any photosensitizer and with 2% FCS. Twenty-four hours after blue-light irradiation, all cell nuclei were stained with Hoechst 33342, and nuclei of dead cells with ethidium homodimer 2, fixed with paraformaldehyde (4% in PBS, 10 min) and 9 pictures per well were captured using a fluorescence microscope (Nikon TiE) equipped with a CoolSNAP HQ2 camera and driven by Metamorph Premier On-Line program. Quantification of live cells was performed using Metamorph Premier Off-Line and a homemade program by subtraction of dead cells from all cells. For cytokines mRNA analysis, RPE cells were seeded in 24-well plates and left untreated or treated with A2E or BIO203 alone or A2E plus BIO203. After 48 h, cells were lysed using the lysis buffer from the NucleoSpin® RNA kit, and the samples were stored at −80 °C.

[2] = tested on: albino rats exposed to blue-light-induced photoreceptor degeneration; experiment: Blue-light damage (BLD) study in albino rats: ERG; format: in vivo, rat; details: 50 mg/kg, four IP administrations; positive controls
Protocol: The ERG in rats was performed using the electrophysiological system RETI-animal® from Roland Consult. ERG was recorded on both eyes from overnight dark-adapted animals. Rats were anesthetized by an intramuscular injection of a mix of Rompun® (xylazine)/Imalgene® (ketamine) before ERG measurement. Ten to fifteen minutes before measurement, one drop of Mydriaticum® (0.5% tropicamide) was instilled for pupillary dilatation. The A-wave and B-wave implicit times (ms) and amplitudes (µV) were measured for each ERG. The B-wave amplitude (value and %) was given as informative data. ERG parameters: Ganzfeld Q450C, Color: white maximum, Maximum intensity: 3 cd/m^2 (0 dB); Duration 0.24 ms; number of flashes: 1, Filter: 50 Hz, Impedance threshold: 50 kΩ. For scotopic ERGs, the A-wave amplitudes were measured from the baseline to the peak of the negative potential, whereas B-wave amplitudes were measured from the trough of the A-wave to the peak of the positive potential. The recordings obtained from these analyses were tabulated and normalized (%) for each eye. Group means, standard deviation, and median values were calculated, considering each eye from one animal as a separate value. ERG recordings in mice were performed as previously described.
(§1) Sixty-four animals were selected based on good health and on scotopic electroretinogram performed before induction when the A-wave amplitude of both eyes was in the range of the global mean (all animals) of A-wave amplitude ± 1.96 SD. Animals were then randomized into the study groups using a macro function in Excel® software based on the A-wave amplitude of both eyes (mean value). On Day 0, BIO203, negative controls, and comparator (N-tert-Butyl-a-phenylnitrone (PBN)) were intraperitoneally injected using a 25 G needle in rats that have been dark-adapted for 36 h. Individually housed rats were then exposed for 6 h (±5 min) to a continuous blue, fluorescent light (400–540 nm) in clear plastic cages. After exposure and administration, the rats were placed in a dark room for 24 h (±1 h) and then were returned to rearing cyclic light conditions.

[3] = tested on: albino rats exposed to blue-light-induced photoreceptor degeneration; experiment: Blue-light damage (BLD) study in albino rats: retinal histology (photoreceptor layers); format: in vivo, rat; details: 50 mg/kg, four IP administrations; 6 h blue-light exposure; p < 0.0001
Protocol: At the end of the measurement period on Day 7, rats were euthanized by an intraperitoneal injection of pentobarbital. Immediately after euthanasia, both eyeballs were sampled, fixed in Davidson’s solution, and processed for histology. Sections (5 to 7 µm thick) were performed along the vertical meridian and stained with Haematoxylin/Eosin stain. The vertical meridian included the optic nerve. […] The thickness of the outer nuclear layer was measured on each point. […] Histology and photoreceptor counting in mice were performed as previously described.
as §1

SMILES | protective activity compared with BIO203 (racemate) [1] | effect on visual function (ERG A-wave and B-wave) [2] | preservation of retinal structure (photoreceptor layers) [3]
CO[C@@H]1CCCN(C(=O)/C=C/C(C)=C/C=C/C(C)=C/C=C/C=C(C)/C=C/C=C(C)\C=C\C(=O)O)C1 [BIO203-R] | same protective activity as BIO203 |  | 
CO[C@H]1CCCN(C(=O)/C=C/C(C)=C/C=C/C(C)=C/C=C/C=C(C)/C=C/C=C(C)\C=C\C(=O)O)C1 [BIO203-S] | same protective activity as BIO203 |  | 
CC(C)(C)[N+]([O-])=Cc1ccccc1 [PBN, N-tert-Butyl-a-phenylnitrone, reference compound] |  | protected the visual functions | partially preserved the retinal structure
